pIC50: −log10 of the molar value.
System: 855422-203-R-J1-PDC complex spheroid viability
Assay: Anticancer human tumor 855422-203-R-J1-PDC patient-derived bladder carcinoma cell line growth inhibition [POLQ]
Conditions: for pIC50: curve of first compound; for viability, T/C: stronger effect = lower value
Method in brief: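 Growth inhibition in 3D: complex spheroids (tumor PDC, HUVEC, MSC) treated with POLQ inhibitor combinations; where Cmax unknown, highest tested concentration 10 microM, except SN-38 at 1 microM.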

[1] = second compound 0.0316 µM, first compound 0.0316 µM
[2] = second compound 0.0316 µM, first compound 0.1 µM
[3] = second compound 0.0316 µM, first compound 0.316 µM
[4] = second compound 0.0316 µM, first compound 1 µM
[5] = second compound 0.0316 µM, first compound 3.16 µM
[6] = second compound 0.0316 µM, first compound 10 µM
[7] = second compound 0.1 µM, first compound 0.0316 µM
[8] = second compound 0.1 µM, first compound 0.1 µM
[9] = second compound 0.1 µM, first compound 0.316 µM
[10] = second compound 0.1 µM, first compound 1 µM
[11] = second compound 0.1 µM, first compound 3.16 µM
[12] = second compound 0.1 µM, first compound 10 µM
[13] = second compound 0.316 µM, first compound 0.0316 µM
[14] = second compound 0.316 µM, first compound 0.1 µM
[15] = second compound 0.316 µM, first compound 0.316 µM
[16] = second compound 0.316 µM, first compound 1 µM
[17] = second compound 0.316 µM, first compound 3.16 µM
[18] = second compound 0.316 µM, first compound 10 µM
[19] = second compound 1 µM, first compound 0.0316 µM
[20] = second compound 1 µM, first compound 0.1 µM
[21] = second compound 1 µM, first compound 0.316 µM
[22] = second compound 1 µM, first compound 1 µM
[23] = second compound 1 µM, first compound 3.16 µM
[24] = second compound 1 µM, first compound 10 µM
[25] = second compound 3.16 µM, first compound 0.0316 µM
[26] = second compound 3.16 µM, first compound 0.1 µM
[27] = second compound 3.16 µM, first compound 0.316 µM
[28] = second compound 3.16 µM, first compound 1 µM
[29] = second compound 3.16 µM, first compound 3.16 µM
[30] = second compound 3.16 µM, first compound 10 µM
[31] = second compound 10 µM, first compound 0.0316 µM
[32] = second compound 10 µM, first compound 0.1 µM
[33] = second compound 10 µM, first compound 0.316 µM
[34] = second compound 10 µM, first compound 1 µM
[35] = second compound 10 µM, first compound 3.16 µM
[36] = second compound 10 µM, first compound 10 µM
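Further: spheroids exposed to compounds for seven days before readout.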

## CNCc1ccc(-c2[nH]c3cc(F)cc4c3c2CCNC4=O)cc1 + Nc1ccc(C#CCN(C(=O)Cc2ncc(C(F)(F)F)cc2C(F)(F)F)c2ccc(F)cc2)nn1
Second compound 0.0316 µM
  pIC50: < 5.00
Second compound 0.1 µM
  pIC50: < 5.00
Second compound 0.316 µM
  pIC50: < 5.00
Second compound 1 µM
  pIC50: < 5.00
Second compound 3.16 µM
  pIC50: < 5.00
Second compound 10 µM
  pIC50: < 5.00
[1]
  viability, T/C: 94.5%
[2]
  viability, T/C: 131%
[3]
  viability, T/C: 102%
[4]
  viability, T/C: 102%
[5]
  viability, T/C: 106%
[6]
  viability, T/C: 116%
[7]
  viability, T/C: 97.8%
[8]
  viability, T/C: 154%
[9]
  viability, T/C: 112%
[10]
  viability, T/C: 86%
[11]
  viability, T/C: 99.2%
[12]
  viability, T/C: 115%
[13]
  viability, T/C: 100%
[14]
  viability, T/C: 121%
[15]
  viability, T/C: 108%
[16]
  viability, T/C: 91.4%
[17]
  viability, T/C: 100%
[18]
  viability, T/C: 119%
[19]
  viability, T/C: 90.9%
[20]
  viability, T/C: 115%
[21]
  viability, T/C: 91.4%
[22]
  viability, T/C: 104%
[23]
  viability, T/C: 118%
[24]
  viability, T/C: 112%
[25]
  viability, T/C: 94.9%
[26]
  viability, T/C: 119%
[27]
  viability, T/C: 101%
[28]
  viability, T/C: 97.3%
[29]
  viability, T/C: 101%
[30]
  viability, T/C: 104%
[31]
  viability, T/C: 98.3%
[32]
  viability, T/C: 102%
[33]
  viability, T/C: 107%
[34]
  viability, T/C: 100%
[35]
  viability, T/C: 110%
[36]
  viability, T/C: 97.8%

## COc1cccc(OCCCN)c1-c1cc(Nc2cnc(C#N)cn2)n[nH]1 + Nc1ccc(C#CCN(C(=O)Cc2ncc(C(F)(F)F)cc2C(F)(F)F)c2ccc(F)cc2)nn1
Second compound 0.0316 µM
  pIC50: 7.56
Second compound 0.1 µM
  pIC50: 7.50
Second compound 0.316 µM
  pIC50: 7.50
Second compound 1 µM
  pIC50: 7.60
Second compound 3.16 µM
  pIC50: 7.62
Second compound 10 µM
  pIC50: 7.62
Second compound 0.0316 µM, first compound 0.00316 µM
  viability, T/C: 111%
Second compound 0.0316 µM, first compound 0.01 µM
  viability, T/C: 197%
[1]
  viability, T/C: 36.6%
[2]
  viability, T/C: 11.9%
[3]
  viability, T/C: 7.2%
[4]
  viability, T/C: 6.13%
Second compound 0.1 µM, first compound 0.00316 µM
  viability, T/C: 106%
Second compound 0.1 µM, first compound 0.01 µM
  viability, T/C: 196%
[7]
  viability, T/C: 50.3%
[8]
  viability, T/C: 10.7%
[9]
  viability, T/C: 6.14%
[10]
  viability, T/C: 5.3%
Second compound 0.316 µM, first compound 0.00316 µM
  viability, T/C: 113%
Second compound 0.316 µM, first compound 0.01 µM
  viability, T/C: 176%
[13]
  viability, T/C: 49.8%
[14]
  viability, T/C: 11.1%
[15]
  viability, T/C: 7.07%
[16]
  viability, T/C: 6.94%
Second compound 1 µM, first compound 0.00316 µM
  viability, T/C: 105%
Second compound 1 µM, first compound 0.01 µM
  viability, T/C: 148%
[19]
  viability, T/C: 31.3%
[20]
  viability, T/C: 9.99%
[21]
  viability, T/C: 7.86%
[22]
  viability, T/C: 7.5%
Second compound 3.16 µM, first compound 0.00316 µM
  viability, T/C: 107%
Second compound 3.16 µM, first compound 0.01 µM
  viability, T/C: 178%
[25]
  viability, T/C: 21.6%
[26]
  viability, T/C: 15.9%
[27]
  viability, T/C: 7.71%
[28]
  viability, T/C: 6.25%
Second compound 10 µM, first compound 0.00316 µM
  viability, T/C: 100%
Second compound 10 µM, first compound 0.01 µM
  viability, T/C: 161%
[31]
  viability, T/C: 24.6%
[32]
  viability, T/C: 8%
[33]
  viability, T/C: 9.72%
[34]
  viability, T/C: 7.4%

## Nc1ccn(C2OC(CO)C(O)C2(F)F)c(=O)n1 (stereo not drawn) + Nc1ccc(C#CCN(C(=O)Cc2ncc(C(F)(F)F)cc2C(F)(F)F)c2ccc(F)cc2)nn1
Second compound 0.0316 µM
  pIC50: 7.21
Second compound 0.1 µM
  pIC50: 7.20
Second compound 0.316 µM
  pIC50: 7.08
Second compound 1 µM
  pIC50: 7.04
Second compound 3.16 µM
  pIC50: 6.68
Second compound 10 µM
  pIC50: 6.35
[1]
  viability, T/C: 93.6%
[2]
  viability, T/C: 18.9%
[3]
  viability, T/C: 17.6%
[4]
  viability, T/C: 13.8%
[5]
  viability, T/C: 11%
[6]
  viability, T/C: 6.83%
[7]
  viability, T/C: 99.3%
[8]
  viability, T/C: 15.9%
[9]
  viability, T/C: 18.2%
[10]
  viability, T/C: 14.1%
[11]
  viability, T/C: 12.3%
[12]
  viability, T/C: 9.34%
[13]
  viability, T/C: 148%
[14]
  viability, T/C: 29.9%
[15]
  viability, T/C: 16%
[16]
  viability, T/C: 18.6%
[17]
  viability, T/C: 11.3%
[18]
  viability, T/C: 8.21%
[19]
  viability, T/C: 136%
[20]
  viability, T/C: 42.2%
[21]
  viability, T/C: 16.8%
[22]
  viability, T/C: 14.5%
[23]
  viability, T/C: 11.3%
[24]
  viability, T/C: 10.8%
[25]
  viability, T/C: 118%
[26]
  viability, T/C: 103%
[27]
  viability, T/C: 19.4%
[28]
  viability, T/C: 16.3%
[29]
  viability, T/C: 14.8%
[30]
  viability, T/C: 11.8%
[31]
  viability, T/C: 105%
[32]
  viability, T/C: 210%
[33]
  viability, T/C: 63.6%
[34]
  viability, T/C: 23%
[35]
  viability, T/C: 18.2%
[36]
  viability, T/C: 14.1%

## O=C(c1cc(Cc2n[nH]c(=O)c3ccccc23)ccc1F)N1CCN(C(=O)C2CC2)CC1 + Nc1ccc(C#CCN(C(=O)Cc2ncc(C(F)(F)F)cc2C(F)(F)F)c2ccc(F)cc2)nn1
Second compound 0.0316 µM
  pIC50: < 5.00
Second compound 0.1 µM
  pIC50: < 5.00
Second compound 0.316 µM
  pIC50: < 5.00
Second compound 1 µM
  pIC50: < 5.00
Second compound 3.16 µM
  pIC50: < 5.00
Second compound 10 µM
  pIC50: < 5.00
[1]
  viability, T/C: 97.5%
[2]
  viability, T/C: 126%
[3]
  viability, T/C: 104%
[4]
  viability, T/C: 98%
[5]
  viability, T/C: 94%
[6]
  viability, T/C: 150%
[7]
  viability, T/C: 95%
[8]
  viability, T/C: 132%
[9]
  viability, T/C: 113%
[10]
  viability, T/C: 90.8%
[11]
  viability, T/C: 125%
[12]
  viability, T/C: 119%
[13]
  viability, T/C: 91.6%
[14]
  viability, T/C: 128%
[15]
  viability, T/C: 96.9%
[16]
  viability, T/C: 98.8%
[17]
  viability, T/C: 129%
[18]
  viability, T/C: 162%
[19]
  viability, T/C: 98.7%
[20]
  viability, T/C: 113%
[21]
  viability, T/C: 105%
[22]
  viability, T/C: 109%
[23]
  viability, T/C: 121%
[24]
  viability, T/C: 163%
[25]
  viability, T/C: 97.6%
[26]
  viability, T/C: 114%
[27]
  viability, T/C: 100%
[28]
  viability, T/C: 107%
[29]
  viability, T/C: 105%
[30]
  viability, T/C: 134%
[31]
  viability, T/C: 99.4%
[32]
  viability, T/C: 102%
[33]
  viability, T/C: 123%
[34]
  viability, T/C: 99.6%
[35]
  viability, T/C: 113%
[36]
  viability, T/C: 109%
